The record followed here is PubChem BioAssay AID1996.

≈ marks a conversion by molar mass, not a printed value.

A word on the kinetic solubility: it is solubility judged after dilution from a stock solution rather than from solid.

For the data set the following is noted: buffer; pH 7.4; 200.0 µM.
`S=C(NCCCc1ccccc1)NCc1ccccc1` gave a solubility (kinetic) of 23.4 µg/mL (≈ 82.3 µM). Consider `COc1ccc([N+](=O)[O-])cc1NC(=O)c1csc(C)c1`, for which the kinetic solubility is less than 0.3 µg/mL.

`CCc1ccc(CN2CCN(c3ncccn3)CC2)cc1` registered a solubility (kinetic) of 29.9 µg/mL (≈ 106 µM). In the case of `O=S(=O)(c1ccc(F)cc1)N1CCc2ccccc21` it was 18.9 µg/mL (≈ 68.2 µM); in that of `CCC(=O)NC(=S)Nc1ccc(NC(=O)c2cccnc2)cc1`, 13.1 µg/mL (≈ 39.9 µM); in that of `Cc1ccccc1C(=O)N1CCN(c2ncccn2)CC1`, greater than 42.4 µg/mL. In turn, `N#Cc1cc2c(nc1SCC(=O)O)CCCCC2` displayed a solubility (kinetic) greater than 39.3 µg/mL. In the case of `O=C(O)CC(NC(=O)c1ccco1)c1ccco1` (configuration not stated) it was greater than 37.4 µg/mL. In the case of `CN1C(=O)NC(=O)/C(=C/c2ccc([N+](=O)[O-])o2)C1=O` it was greater than 39.8 µg/mL; in that of `Cc1ccc(-c2c[n+](CC(=O)Nc3ccccc3)c3n2CCC3)cc1.[Cl-]`, greater than 55.2 µg/mL; in that of `Cc1cccc(NC(=O)COC(=O)[C@@H]2CCCN2C(=O)c2cccs2)c1`, 2.8 µg/mL (≈ 7.52 µM). `COc1ccccc1C/C(N)=N/OC(=O)c1ccc2c(c1)OCO2` came in with a solubility (kinetic) greater than 49.2 µg/mL. In the case of `CC(C)[C@H](NC(=O)c1ccccc1F)C(=O)OCC(=O)NC1CC1` it was 34.3 µg/mL (≈ 102 µM). `O=c1[nH]cccc1-c1nc2ccccc2n1Cc1ccc(F)cc1` came in with a kinetic solubility of 47.7 µg/mL (≈ 149 µM). This solubility kinetic and that of the molecule before are within 1.5-fold of each other. In the case of `COCCCNc1nc(N)c([N+](=O)[O-])c(Nc2cc(OC)ccc2OC)n1` it was less than 0.1 µg/mL; in that of `Cc1ccccc1C(=O)NCC(=O)OC1CCCCC1=O` (configuration not stated), greater than 43.4 µg/mL; in that of `COC(=O)c1ccc(-c2noc(CN(C)CC3CCCCO3)n2)cc1` (configuration not stated), greater than 51.8 µg/mL. For `CCN(CC(=O)NCc1cccs1)C(=O)c1ccc(C)o1`, the solubility (kinetic) was greater than 46 µg/mL. For `COc1ccc(CCNS(=O)(=O)c2cn(C)nc2C)cc1`, the kinetic solubility is greater than 46.4 µg/mL. With `Cc1cc(C)cc(C(=O)Nc2nc3ccccc3[nH]2)c1`, the solubility (kinetic) turned out to be 1.4 µg/mL (≈ 5.28 µM).

The molecule `Cc1c(-c2nc(-c3cccnc3)no2)cccc1[N+](=O)[O-]` showed a kinetic solubility of 2 µg/mL (≈ 7.09 µM). With `COc1ccc([N+](=O)[O-])c(OC)c1C(=O)NC(=O)Nc1nc(C)nc(C)n1` the figure was greater than 56.4 µg/mL; with `COc1ccc(C(=O)Nc2nc(-c3ccccn3)cs2)cc1S(=O)(=O)N1CCOCC1`, 6.8 µg/mL (≈ 14.8 µM). In turn, `O/N=C\c1ccc2noc(-c3ccc(Cl)cc3)c2c1` had a kinetic solubility of less than 0.3 µg/mL. With `Cc1ccc(CSCC(=O)NCCc2ccccc2)cc1` the figure was 40.9 µg/mL (≈ 137 µM).

`O=C(/C=C/c1ccccc1Cl)N1CCOCC1` registered a solubility (kinetic) of 36.6 µg/mL (≈ 145 µM). This solubility kinetic and that of the molecule before are within 1.5-fold of each other. In the case of `O=c1cc(NC2CCCCC2)[nH]c(=O)[nH]1` it was 13.1 µg/mL (≈ 62.6 µM). With `CSc1ccccc1NC(=O)COC(=O)CCc1ccccc1` the figure was 27.8 µg/mL (≈ 84.4 µM). With `CCCCn1c(CCl)nc2cc(S(=O)(=O)N3CCOCC3)ccc21` the figure was greater than 55.8 µg/mL; with `Cc1onc(-c2c(Cl)cccc2Cl)c1NC(=O)N1CCSCC1`, greater than 55.8 µg/mL. `COC(=O)CSc1[nH]c2ccccc2c1[N+](=O)[O-]` registered a solubility (kinetic) greater than 39.9 µg/mL. With `CC(=O)N[C@@H](Cc1c[nH]c2ccccc12)C(=O)NCc1ccccc1` the figure was greater than 50.3 µg/mL; with `Oc1ccc(Br)cc1CNc1nccs1`, 4.4 µg/mL (≈ 15.4 µM); with `Cc1ccc(OC(=O)CCC(=O)Nc2ccc(C)c(C)c2)cc1`, 43.2 µg/mL (≈ 139 µM). In the case of `CCNCC(O)c1cccc(O)c1` (configuration not stated) it was 18.9 µg/mL (≈ 104 µM); in that of `N#Cc1ccccc1NC(=O)c1cc(=O)c2ccccc2o1`, 1.9 µg/mL (≈ 6.55 µM). With `COc1cc(OC)c(CNC2CCCCCC2)cc1Br` the figure was greater than 51.3 µg/mL; with `O=C(NCC1CCCO1)c1cc(Br)c(Br)s1` (configuration not stated), greater than 55.4 µg/mL.

In turn, `O=S(=O)(c1ccccc1)N1CCN(CCc2ccccc2)CC1` registered a solubility (kinetic) of 1.7 µg/mL (≈ 5.14 µM). `O=C(C1CCC1)N1CCN(c2ccnc3cc(Cl)ccc23)CC1` came in with a kinetic solubility of 45.4 µg/mL (≈ 138 µM). With `CN(CCC(=O)Nc1ccc(Cl)cc1)Cc1ccccc1.Cl` the figure was greater than 50.9 µg/mL. As to `Cc1ccc2c(c1)C(=C(C#N)C#N)C(=O)N2CCN1CCOCC1`, the kinetic solubility came to 48.3 µg/mL (≈ 150 µM).

In turn, `Cc1ccc(C)c(NC(=O)CN(C)C(=O)CC2OC(=O)c3ccccc32)c1` (configuration not stated) came in with a kinetic solubility greater than 55 µg/mL. With `Cc1ccccc1NCc1ccc([N+](=O)[O-])s1` the figure was 13.7 µg/mL (≈ 55.2 µM).

Regarding `CC(C)[C@H](NC(N)=O)C(=O)Nc1ccc(OCc2ccccc2)cc1`, the kinetic solubility was found to be 3 µg/mL (≈ 8.79 µM).

Molecule `CCCn1c(=O)c(C(=O)NC(C)c2ccccc2)c(O)c2ccccc21` (configuration not stated) yielded a kinetic solubility of 1.3 µg/mL (≈ 3.71 µM). This solubility kinetic is about 2.3-fold lower than that of the molecule before. With `Cc1onc(NC(=O)NC(=O)c2ccccc2F)c1Br` the figure was 6.8 µg/mL (≈ 19.9 µM).

For the molecule `O=C(COc1ccccc1)N1CCCC1`, the solubility (kinetic) was 26.7 µg/mL (≈ 130 µM). In the case of `CC(C(=O)NC1CCCCCC1)n1cc([N+](=O)[O-])cn1` (configuration not stated) it was greater than 42 µg/mL; in that of `CCOC(=O)c1c(C)[nH]c(C(=O)OCc2ccccc2F)c1C`, less than 0.7 µg/mL; in that of `O=C1CC(Sc2ncccc2C(=O)O)C(=O)N1` (configuration not stated), greater than 37.8 µg/mL.

The molecule `O=C(OCC(=O)N1CCN(C(=O)c2ccco2)CC1)c1ccc(Cl)nc1` came in with a kinetic solubility greater than 56.7 µg/mL.
